Results published in patent US9598365B2, “Method for synthesizing cycloalkanyl[b]indoles, cycloalkanyl[b]benzofurans, cycloalkanyl[b]benzothiophenes, compounds and methods of use” (Trustees of Dartmouth College, priority 2012, dated 2017).
Where “and” joins values, the source holds several entries; their conditions need not be identical. Equal entries are not always repeated. Where two headings read alike, the source gives them in different places.

Experiments:
hMGLUR2 = hMGLUR2 (Homo sapiens, UniProt Q14416); assay: mGlu2R antagonist, hMGLUR2; format: cell-based
Excerpt: (§1) Selected compounds of this invention were screened for K-Ras Wnt synthetic lethal, anti-angiogenic activity, Wnt pathway modulatory activity, insulin and GLP-1 secretion modulatory activity, GPR119 receptor agonist activity, mGlu2R antagonist activity, CGRP receptor antagonist activity, Apelin receptor agonist activity and hexokinase 2 inhibitory activity using the PD^2 and TD^2 Screening Panel (Eli Lilly & Company). See Lee, et al. (2011) J. Biomol. Screen. 16:588-602.

RKO = assay: K-Ras Wnt synthetic lethal, RKO KrasSL; format: cell-based; details: Homo sapiens, average of three independent experiments, read-out: RKO KrasSL % Inhibit
Excerpt: as §1

Angio Tube Area = assay: Anti-angiogenic activity, Angio Tube Area; format: cell-based; details: read-out: Angio Tube Area % Inhibit
Excerpt: as §1

SNU-C1 = assay: K-Ras Wnt synthetic lethal, SNU-C1 KrasSL; format: cell-based; details: Homo sapiens, read-out: SNU-C1 KrasSL % Inhibit
Excerpt: as §1

hNCI-H716 = hNCI-H716 GLP-1 secretion; format: cell-based
Excerpt: as §1
(§2) In light of the above results, additional compounds (Table 7) were prepared and phenotypic assays were carried out using hNCI-H716 and mSTC-1 cell lines to monitor GLP-1 secretion (single point (SP) and concentration response curves (CRC)) (Table 8), as well as a secondary assay with pituitary cells (Table 9).

Wnt Pathway = assay: Wnt pathway modulatory activity, Osteo bCat; format: cell-based
Excerpt: as §1

hGPR119 = target: T1, hGPR119 (Homo sapiens, UniProt Q8TDV5); assay: GPR119 receptor agonist, hGPR119 agonism; format: cell-based; details: @ 10 μM
T1 sequence (Q8TDV5 1-335): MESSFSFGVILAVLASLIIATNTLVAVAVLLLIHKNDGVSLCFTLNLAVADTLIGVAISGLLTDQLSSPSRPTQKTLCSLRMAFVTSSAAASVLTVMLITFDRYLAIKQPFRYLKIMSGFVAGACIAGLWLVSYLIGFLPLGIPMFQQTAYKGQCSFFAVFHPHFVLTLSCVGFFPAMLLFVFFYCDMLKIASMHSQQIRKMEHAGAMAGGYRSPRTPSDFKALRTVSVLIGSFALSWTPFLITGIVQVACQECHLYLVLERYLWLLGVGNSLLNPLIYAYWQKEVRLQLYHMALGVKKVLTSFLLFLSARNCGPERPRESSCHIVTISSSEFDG
Excerpt: as §1

hApelin = target: T2, hApelin (Homo sapiens, UniProt P35414); assay: Apelin receptor agonist, hApelin agonism; format: cell-based; details: @ 30 μM
T2 sequence (P35414 1-380): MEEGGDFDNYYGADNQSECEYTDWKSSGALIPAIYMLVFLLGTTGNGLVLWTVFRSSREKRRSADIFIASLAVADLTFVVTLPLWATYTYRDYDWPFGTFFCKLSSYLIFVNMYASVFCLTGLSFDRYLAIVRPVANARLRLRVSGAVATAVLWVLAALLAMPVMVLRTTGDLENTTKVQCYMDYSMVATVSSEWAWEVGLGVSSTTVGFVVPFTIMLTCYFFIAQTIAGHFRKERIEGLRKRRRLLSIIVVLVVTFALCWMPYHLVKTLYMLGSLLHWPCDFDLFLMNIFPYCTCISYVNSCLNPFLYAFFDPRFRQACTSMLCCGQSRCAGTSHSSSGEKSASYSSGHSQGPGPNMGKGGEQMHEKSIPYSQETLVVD
Excerpt: as §1

hHK2 = target: T3, hHK2 (Homo sapiens, UniProt P52789); assay: Hexokinase 2 inhibitor, hHK2 ADP-FP; format: biochemical
T3 sequence (P52789 1-917): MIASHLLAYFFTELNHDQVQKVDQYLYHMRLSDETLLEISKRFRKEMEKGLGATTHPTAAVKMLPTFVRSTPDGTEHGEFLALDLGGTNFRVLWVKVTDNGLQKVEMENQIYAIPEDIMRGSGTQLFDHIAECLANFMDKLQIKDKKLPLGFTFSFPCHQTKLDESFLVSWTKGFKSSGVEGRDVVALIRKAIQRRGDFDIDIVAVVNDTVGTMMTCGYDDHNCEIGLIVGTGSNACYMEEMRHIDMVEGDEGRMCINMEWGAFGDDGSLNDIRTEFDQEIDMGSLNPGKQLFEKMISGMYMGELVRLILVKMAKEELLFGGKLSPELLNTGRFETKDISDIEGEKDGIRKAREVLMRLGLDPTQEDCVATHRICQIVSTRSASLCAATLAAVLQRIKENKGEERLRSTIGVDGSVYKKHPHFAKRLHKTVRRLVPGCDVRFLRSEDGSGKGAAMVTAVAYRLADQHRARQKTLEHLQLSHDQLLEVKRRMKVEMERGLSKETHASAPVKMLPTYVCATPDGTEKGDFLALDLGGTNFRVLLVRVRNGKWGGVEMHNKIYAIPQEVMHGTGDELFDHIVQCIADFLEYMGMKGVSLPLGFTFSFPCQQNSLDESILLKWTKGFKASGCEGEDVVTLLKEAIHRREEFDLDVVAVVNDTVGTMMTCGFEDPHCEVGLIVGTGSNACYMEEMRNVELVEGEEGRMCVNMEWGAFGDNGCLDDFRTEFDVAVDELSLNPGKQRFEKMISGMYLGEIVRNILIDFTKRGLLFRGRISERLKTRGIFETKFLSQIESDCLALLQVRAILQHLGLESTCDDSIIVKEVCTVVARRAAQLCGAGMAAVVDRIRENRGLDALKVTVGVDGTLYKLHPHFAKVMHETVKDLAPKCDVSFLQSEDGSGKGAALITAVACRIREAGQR
Excerpt: as §1

HCT116 = assay: K-Ras Wnt synthetic lethal, HCT116 KrasSL; format: cell-based; details: Homo sapiens, HCT-116, read-out: HCT116 KrasSL % Inhibit
Excerpt: as §1

Co1o320 = assay: K-Ras Wnt synthetic lethal, Co1o320 KrasSL; format: cell-based; details: read-out: Co1o320 KrasSL % Inhibit
Excerpt: as §1

Pituitary Cells = assay: Secondary assay, pituitary cells growth hormone secretion; format: cell-based; details: @ 3.3 μM
Protocol: as §2

Chain of hMGLUR2 (Q14416 19-872): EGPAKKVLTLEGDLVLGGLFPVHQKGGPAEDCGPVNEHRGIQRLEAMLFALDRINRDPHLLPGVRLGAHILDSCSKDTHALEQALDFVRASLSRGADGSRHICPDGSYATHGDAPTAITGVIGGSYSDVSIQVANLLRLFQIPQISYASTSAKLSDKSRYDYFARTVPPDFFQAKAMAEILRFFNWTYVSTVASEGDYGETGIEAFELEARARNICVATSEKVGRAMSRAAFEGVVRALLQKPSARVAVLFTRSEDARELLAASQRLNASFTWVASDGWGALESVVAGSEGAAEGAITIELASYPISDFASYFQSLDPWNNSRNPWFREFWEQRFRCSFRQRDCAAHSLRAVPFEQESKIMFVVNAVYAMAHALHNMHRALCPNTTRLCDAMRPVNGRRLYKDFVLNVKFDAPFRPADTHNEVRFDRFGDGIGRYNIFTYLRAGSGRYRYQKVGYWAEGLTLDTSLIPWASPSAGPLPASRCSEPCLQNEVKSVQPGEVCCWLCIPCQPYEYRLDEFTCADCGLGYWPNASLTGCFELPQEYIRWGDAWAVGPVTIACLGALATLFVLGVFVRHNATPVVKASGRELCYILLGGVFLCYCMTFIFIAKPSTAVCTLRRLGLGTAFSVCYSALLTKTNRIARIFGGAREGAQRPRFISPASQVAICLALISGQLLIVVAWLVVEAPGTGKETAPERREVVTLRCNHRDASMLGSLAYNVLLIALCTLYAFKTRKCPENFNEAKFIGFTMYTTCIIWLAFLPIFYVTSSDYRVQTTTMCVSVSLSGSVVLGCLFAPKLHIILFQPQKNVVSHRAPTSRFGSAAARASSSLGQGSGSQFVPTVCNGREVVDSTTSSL

inhibition at 50 µM (hMGLUR2): -20.4%
EC50 (hNCI-H716; GLP-1 secretion, concentration response curve, read-out: Primary CRC (EC50, μM) hNCI): 34.8 µM and 33.5 µM and 23.2 µM and > 40 µM
EC50 (hNCI-H716; average of three independent experiments, read-out: hNCI GLP-1 Secretion EC50): 34.8 µM
EC50 (hNCI-H716; secretion and/or production of GLP-1, read-out: EC50 values (Table 6)): 35 µM
hGPR119 agonism % Stimulation (hGPR119): −5.1%
hApelin agonism % Stimulation (hApelin): −46.2%
inhibition at 20 µM (hHK2): 5.5%
SMILES: CC1(C)c2c([nH]c3ccc(Cl)cc23)C2C=CC1C2 (stereo not shown) [Compound 11s]
inhibition at 0.2 µM (RKO; @ 0.2 μM): -2.8%
inhibition at 2 µM (RKO; @ 2 μM): 14.4%
inhibition at 20 µM (RKO; @ 20 μM): 102%
inhibition at 2 µM (Angio Tube Area; @ 2 μM): 21.7%
inhibition at 10 µM (Angio Tube Area; @ 10 μM): 21.8%
inhibition at 0.2 µM (SNU-C1; @ 0.2 μM): 15.7%
inhibition at 2 µM (SNU-C1; @ 2 μM): 5.5%
inhibition at 20 µM (SNU-C1; @ 20 μM): 106%
activation at 2 µM (hNCI-H716; 2 μM, GLP-1 secretion, single point, read-out: Primary SP hNCI (% Stim.)): -1.7%
activation at 20 µM (hNCI-H716; 20 μM, GLP-1 secretion, single point, read-out: Primary SP hNCI (% Stim.)): 108%
hNCI GLP-1 Secretion % Stimulation (hNCI-H716; @ 2 μM): −1.7%
hNCI GLP-1 Secretion % Stimulation (hNCI-H716; @ 20 μM): 108%
Osteo bCat % Stimulation (Wnt Pathway; @ 2 μM): 1.3%
Osteo bCat % Stimulation (Wnt Pathway; @ 10 μM): 9.3%
inhibition at 0.2 µM (HCT116; @ 0.2 μM): 2.3%
inhibition at 2 µM (HCT116; @ 2 μM): -38%
inhibition at 20 µM (HCT116; @ 20 μM): 96.4%
inhibition at 0.2 µM (Co1o320; @ 0.2 μM): 33.3%
inhibition at 2 µM (Co1o320; @ 2 μM): 15.8%
inhibition at 20 µM (Co1o320; @ 20 μM): 150%
Pituitary Cells (Growth Hormone Secretion, % Stimulation) (Pituitary Cells): −10.0% and −17.7% and −18.6%
